Measurements published in US20060223837A1 (priority 2005, published 2006).
pEC50, pIC50, pKi: −log10 of the molar value. Counter-ions that a name gives are not always drawn.

Assays:
human VR1 [1] = molecular target: T1, human VR1 (Homo sapiens, UniProt Q8NER1); assay: Human VR1 [3H]RTX binding assay; details: for pKi: [3H]RTX binding, HEK293 membranes; for inhibition at 1 µM / h Binding % I (1 μM): inhibition of [3H]RTX binding at 1 μM; for inhibition at 1 µM: read-out: h Binding % I (1 μM)
T1 construct: expressed in transfected cells; host or cells: HEK293
T1 sequence (Q8NER1 whole entry): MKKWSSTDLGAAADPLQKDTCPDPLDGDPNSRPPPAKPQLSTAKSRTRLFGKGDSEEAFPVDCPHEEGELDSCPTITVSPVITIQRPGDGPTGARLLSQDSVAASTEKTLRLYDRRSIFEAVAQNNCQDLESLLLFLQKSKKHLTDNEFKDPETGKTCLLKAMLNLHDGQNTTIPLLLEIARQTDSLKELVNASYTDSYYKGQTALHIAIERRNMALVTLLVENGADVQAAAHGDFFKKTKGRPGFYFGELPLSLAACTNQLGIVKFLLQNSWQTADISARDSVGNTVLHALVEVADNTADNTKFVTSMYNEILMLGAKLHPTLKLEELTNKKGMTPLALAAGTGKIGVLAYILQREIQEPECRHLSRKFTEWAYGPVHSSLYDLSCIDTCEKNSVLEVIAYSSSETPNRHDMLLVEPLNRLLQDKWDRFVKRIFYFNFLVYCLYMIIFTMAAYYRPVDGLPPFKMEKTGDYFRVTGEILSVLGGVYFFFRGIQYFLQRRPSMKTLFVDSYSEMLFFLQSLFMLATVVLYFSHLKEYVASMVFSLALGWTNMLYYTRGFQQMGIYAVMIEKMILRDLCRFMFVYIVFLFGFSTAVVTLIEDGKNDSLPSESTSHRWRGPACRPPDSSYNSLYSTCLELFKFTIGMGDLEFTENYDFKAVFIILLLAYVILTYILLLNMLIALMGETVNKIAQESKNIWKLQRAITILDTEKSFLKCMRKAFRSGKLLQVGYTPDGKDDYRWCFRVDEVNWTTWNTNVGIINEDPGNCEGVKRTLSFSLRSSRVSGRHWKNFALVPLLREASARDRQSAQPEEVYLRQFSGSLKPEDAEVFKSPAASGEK
Method: Compounds of the present invention were tested for their ability to inhibit the binding of tritiated resiniferatoxin ([^3H] RTX) to human VR1 receptors in a [^3H] RTX binding assay, as previously described (Zhang, Sui-Po. Improved ligand binding assays for vanilloid receptors. PCT Int. Appl. (2002), WO 0233411 A1 20020425 AN 2002:315209; Grant, Elfrida R., Dubin, Adrienne E., Zhang, Sui-Po, Zivin, Robert A., Zhong, Zhong Simultaneous intracellular calcium and sodium flux imaging in human VR1-transfected human embryonic kidney cells: a method to resolve ionic dependence of VR1-mediated cell death. J. Pharmacol. Exp. ther., 2002, 300(1), 9-17.) HEK293 cells were transfected with human VR1 and washed with Hank's balanced Salt Solution, dissociated with cell dissociation buffer (Sigma), and then centrifuged at 1000× g for 5 min. Cell pellets were homogenized in cold 20 mM HEPES buffer (pH 7.4), containing 5.8 mM NaCl, 320 mM sucrose, 2 mM MgCl2, 0.75 CaCl2 and 5 mM KCl and centrifuged at 1000× g for 15 min. The resultant supernate was then centrifuged at 40000× g for 15 min. The pelleted membranes were stored in a freezer at −80 C.
Approximately 120 μg protein/ml from membranes were incubated with indicated concentrations of [^3H]RTX in 0.5 ml of the HEPES buffer (pH 7.4) containing 0.25 mg/mL fatty acid-free bovine serum albumin at 37 C for 60 min. After cooling the reaction mixture to 4 C, 0.1 mg (x-acid glycoprotein was added to each sample, which was incubated at 4 C for 15 min and then centrifuged at 18500× g for 15 min. The tip of the microcentrifuge tube containing the pellet was cut off. Bound radioactivity was quantified by scintillation counting. Non-specific binding was assessed in the presence of 200 nM unlabeled resiniferatoxin.
Data were calculated according to the equation: % inhibtion=(total binding−binding)*100/(total binding−non specific binding).
Ki values were calculated based on an average of duplicate measurements using a GraphPad Prism program.

human VR1 [2] = molecular target: T1, human VR1; assay: Human VR1 functional assay (FLIPR intracellular Ca2+); format: cell-based; details: for Emax at 12 µM / % Response Relative to EC80 of Capsaicin (12 μM) / Emax at 6 µM: agonist response; for Emax at 12 µM: read-out: % Response Relative to EC80 of Capsaicin (12 μM); for h % I (5 μM) / inhibition at 1 µM / inhibition at 5 µM: inhibition of capsaicin response; for Emax at 6 µM: read-out: % Response Relative to EC80 of Capsaicin (6 μM); for pEC50: agonist-induced Ca2+ increase, read-out: h EC50; for inhibition at 1 µM: read-out: h % I (1 μM); for pIC50: antagonism of capsaicin-induced Ca2+ increase, read-out: h IC50; for inhibition at 5 µM: read-out: h % I (5 μM)
Summary of the method: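 HEK293 cells expressing human VR1, loaded with Calcium 3 dye, were exposed to test compounds for 5 min while FLIPR recorded intracellular Ca2+, then challenged with capsaicin at ~80% maximal response ([…]). EC50 or IC50 came from dose-response curves on quadruplicate-well means.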

pKi (human VR1 [1]) | inhibition at 1 µM (human VR1 [1]) | Emax at 12 µM (human VR1 [2]) | h Binding % I (1 μM) (human VR1 [1]) | SMILES | further results
6.38 | 50% | 77% | – | O=C(CCc1ccc(C(F)(F)F)cc1)Nc1ccc(-c2ccccc2O)cc1 [Cpd 76] | –
6.87 | 72% | 88% | – | O=C(CCc1ccc(C(F)(F)F)cc1)Nc1ccc(-c2cccc(O)c2)cc1 [Cpd 77] | –
6.54 | 56% | 70% | – | O=C(CCc1ccc(C(F)(F)F)cc1)Nc1ccc(-c2ccc(O)cc2)cc1 [Cpd 78] | –
– | – | – | 19% | O=C(CCc1ccc(C(F)(F)F)cc1)Nc1ccc(-c2cccc(CO)c2)cc1 [Cpd 79] | % Response Relative to EC80 of Capsaicin (12 μM) (human VR1 [2]): 74%
6.57 | 62% | 77% | – | O=C(CCc1ccc(C(F)(F)F)cc1)Nc1ccc(-c2ccc(CO)cc2)cc1 [Cpd 80] | –
– | – | – | 6% | CC(=O)Nc1cccc(-c2ccc(NC(=O)CCc3ccc(C(C)(C)C)cc3)c3ccccc23)c1 [Cpd 81] | h % I (5 μM) (human VR1 [2]): 11%
– | – | – | 28% | CC(C)(C)c1ccc(CCC(=O)Nc2ccc(-c3cccc(O)c3)c3ccccc23)cc1 [Cpd 82] | h % I (5 μM) (human VR1 [2]): 39%
– | – | – | 1% | NC(=O)c1cccc(-c2ccc(NC(=O)CCc3ccc(C(F)(F)F)cc3)c3ccccc23)c1 [Cpd 83] | h % I (5 μM) (human VR1 [2]): 31%
– | – | – | 1% | CC(=O)Nc1cccc(-c2ccc(NC(=O)CCc3ccc(C(F)(F)F)cc3)c3ccccc23)c1 [Cpd 84] | h % I (5 μM) (human VR1 [2]): 43%
– | – | – | 1% | O=C(CCc1ccc(C(F)(F)F)cc1)Nc1ccc(-c2cccc(O)c2)c2ccccc12 [Cpd 85] | h % I (5 μM) (human VR1 [2]): 21%
7.05 | – | – | – | CC(C)(C)c1ccc(CCC(=O)Nc2ccc(-c3ccccc3O)c(CO)c2)cc1 [Cpd 92] | Emax at 6 µM (human VR1 [2]): 133%; pEC50 (human VR1 [2]): 6.95; inhibition at 1 µM (human VR1 [2]): 84%
7.47 | – | – | – | CC(C)(C)c1ccc(CCC(=O)Nc2ccc(-c3cccc(O)c3)c(CO)c2)cc1 [Cpd 93] | Emax at 6 µM (human VR1 [2]): 153%; pEC50 (human VR1 [2]): 7.19; inhibition at 1 µM (human VR1 [2]): 93%
7.38 | – | – | – | CC(C)(C)c1ccc(CCC(=O)Nc2ccc(-c3ccc(O)cc3)c(CO)c2)cc1 [Cpd 94] | Emax at 6 µM (human VR1 [2]): 115%; pEC50 (human VR1 [2]): 7.03; inhibition at 1 µM (human VR1 [2]): 92%
7.11 | – | – | – | CC(C)(C)c1ccc(CCC(=O)Nc2ccc(-c3ccc(CO)cc3)c(CO)c2)cc1 [Cpd 96] | Emax at 6 µM (human VR1 [2]): 65%; inhibition at 1 µM (human VR1 [2]): 91%
7.82 | – | – | – | Cc1cc(NC(=O)CCc2ccc(C(C)(C)C)cc2)ccc1-c1ccccc1O [Cpd 97] | pIC50 (human VR1 [2]): 6.64; inhibition at 1 µM (human VR1 [2]): 95%; inhibition at 5 µM (human VR1 [2]): 104%
7.24 | – | – | – | Cc1cc(NC(=O)CCc2ccc(C(C)(C)C)cc2)ccc1-c1ccc(O)cc1 [Cpd 98] | pIC50 (human VR1 [2]): 6.38; inhibition at 1 µM (human VR1 [2]): 97%; inhibition at 5 µM (human VR1 [2]): 102%
7.54 | – | – | – | Cc1cc(NC(=O)CCc2ccc(C(C)(C)C)cc2)ccc1-c1ccc(CO)cc1 [Cpd 99] | pIC50 (human VR1 [2]): 6.68; inhibition at 1 µM (human VR1 [2]): 97%; inhibition at 5 µM (human VR1 [2]): 79%
7.17 | – | – | – | CC(C)(C)c1ccc(CCC(=O)Nc2ccc(-c3ccccc3O)c(F)c2)cc1 [Cpd 100] | Emax at 6 µM (human VR1 [2]): 96%; inhibition at 1 µM (human VR1 [2]): 87%
7.30 | – | – | – | CC(C)(C)c1ccc(CCC(=O)Nc2ccc(-c3ccc(O)cc3)c(F)c2)cc1 [Cpd 101] | Emax at 6 µM (human VR1 [2]): 71%; inhibition at 1 µM (human VR1 [2]): 95%
7.41 | – | – | – | CC(C)(C)c1ccc(CCC(=O)Nc2ccc(-c3ccc(CO)cc3)c(F)c2)cc1 [Cpd 102] | Emax at 6 µM (human VR1 [2]): 74%; inhibition at 1 µM (human VR1 [2]): 97%
– | 1% | – | – | CC(C)(C)c1ccc(CCC(=O)Nc2ccccc2-c2ccncc2)cc1 [Cpd 103] | pIC50 (human VR1 [2]): 5.45
6.74 | 73% | 62% | – | CC(C)(C)c1ccc(CCC(=O)Nc2cccc(-c3ccncc3)c2)cc1 [Cpd 104] | –
– | 1% | – | – | CC(C)(C)c1ccc(CCC(=O)Nc2ccccc2-c2cccnc2)cc1 [Cpd 105] | pIC50 (human VR1 [2]): 5.40

pKi (human VR1 [1]) | inhibition at 1 µM (human VR1 [1]) | Emax at 12 µM (human VR1 [2]) | h Binding % I (1 μM) (human VR1 [1]) | SMILES | further results
6.92 | 82% | 78% | – | CC(C)(C)c1ccc(CCC(=O)Nc2ccc(-c3cccnc3)cc2)cc1 [Cpd 107] | –
– | 16% | 98% | – | CC(C)(C)c1ccc(CCC(=O)Nc2ccccc2-c2ccccn2)cc1 [Cpd 108] | pEC50 (human VR1 [2]): 6.03
– | 1% | 47% | – | CC(C)(C)c1ccc(CCC(=O)Nc2cccc(-c3ccccn3)c2)cc1 [Cpd 109, 3-(4-tert-butyl-phenyl)-N-(3-pyridin-2-yl-phenyl)-propionamide hydrochloride] | –
6.77 | 61% | 119% | – | CC(C)(C)c1ccc(CCC(=O)Nc2ccc(-c3ccncc3)cc2)cc1 [Cpd 111, 3-(4-tert-butyl-phenyl)-N-(4-pyridin-4-yl-phenyl)-propionamide] | pEC50 (human VR1 [2]): 7.74
6.49 | 67% | 101% | – | CC(C)(C)c1ccc(CCC(=O)Nc2ccc(-c3cncnc3)cc2)cc1 [Cpd 113] | pEC50 (human VR1 [2]): 6.11
– | – | – | 34% | CC(C)(C)c1ccc(CCC(=O)Nc2ccc(-c3ncccc3O)cc2)cc1 [Cpd 115] | % Response Relative to EC80 of Capsaicin (12 μM) (human VR1 [2]): 58%
– | 1.1% | – | – | CC(C)(C)c1ccc(CCC(=O)Nc2cccc(-c3ncccn3)c2)cc1 [Cpd 116] | pIC50 (human VR1 [2]): 6.42
7.39 | 88% | 126% | – | CC(C)(C)c1ccc(CCC(=O)Nc2ccc(-c3cccc(O)c3)nc2)cc1 [Cpd 129] | pEC50 (human VR1 [2]): 7.77
– | – | – | 45% | CC(C)(C)c1ccc(CCC(=O)Nc2ccc(-c3ccccc3O)nc2)cc1 [Cpd 132] | h % I (5 μM) (human VR1 [2]): 30%
7.96 | 101% | 95% | – | CC(C)(C)c1ccc(CCC(=O)Nc2ccc(-c3ccc(O)cc3)nc2)cc1 [Cpd 133] | –
7.51 | 90% | 79% | – | CC(C)(C)c1ccc(CCC(=O)Nc2ccc(-c3ccc(CO)cc3)nc2)cc1 [Cpd 135] | –
6.99 | 84% | 78% | – | CC(C)(C)c1ccc(CCC(=O)Nc2ccc(-c3cccnc3)nc2)cc1 [Cpd 136] | –
7.03 | 66% | 96% | – | CC(C)(C)c1ccc(CCC(=O)Nc2ccc(-c3ccncc3)nc2)cc1 [Cpd 137] | –
6.34 | – | – | 61% | CC(C)(C)c1csc(CCC(=O)Nc2ccc(-c3ccncc3)cc2)c1 [Cpd 138] | % Response Relative to EC80 of Capsaicin (12 μM) (human VR1 [2]): 113%
– | – | – | 45% | O=C(CCc1ccc(C(F)(F)F)cc1)Nc1ccc(-c2cccnc2)cc1 [Cpd 142] | % Response Relative to EC80 of Capsaicin (12 μM) (human VR1 [2]): 78%
– | – | – | 44% | O=C(CCc1ccc(C(F)(F)F)cc1)Nc1ccc(-c2ccncc2)cc1 [Cpd 143] | % Response Relative to EC80 of Capsaicin (12 μM) (human VR1 [2]): 111%
– | – | – | 1% | NC(=O)c1cccc(-c2ccc(NC(=O)CCc3ccc(C(F)(F)F)cc3)cn2)c1 [Cpd 144] | % Response Relative to EC80 of Capsaicin (12 μM) (human VR1 [2]): 73%
– | – | – | 16% | CC(=O)Nc1cccc(-c2ccc(NC(=O)CCc3ccc(C(F)(F)F)cc3)cn2)c1 [Cpd 145] | % Response Relative to EC80 of Capsaicin (12 μM) (human VR1 [2]): 92%
6.50 | 62% | 92% | – | O=C(CCc1ccc(C(F)(F)F)cc1)Nc1ccc(-c2cccc(O)c2)nc1 [Cpd 147] | –
7.01 | 73% | 74% | – | O=C(CCc1ccc(C(F)(F)F)cc1)Nc1ccc(-c2ccc(O)cc2)nc1 [Cpd 148] | –
– | – | – | 9% | O=C(CCc1ccc(C(F)(F)F)cc1)Nc1ccc(-c2cccc(CO)c2)nc1 [Cpd 149] | % Response Relative to EC80 of Capsaicin (12 μM) (human VR1 [2]): 101%
6.83 | 75% | 79% | – | O=C(CCc1ccc(C(F)(F)F)cc1)Nc1ccc(-c2ccc(CO)cc2)nc1 [Cpd 150] | –
– | – | – | 35% | O=C(CCc1ccc(C(F)(F)F)cc1)Nc1ccc(-c2cccnc2)nc1 [Cpd 151] | % Response Relative to EC80 of Capsaicin (12 μM) (human VR1 [2]): 91%
